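A five-concentration, 48-hour dose response in 96-well plates underlies each endpoint, interpolated linearly between surrounding concentrations. At the GI50, growth is halved.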 Active and inactive are the calls of the source. Rule as the data show it: active = GI50 up to about 1.1 µM and inactive = higher.
Assays:
Assay in all cases: DTP human tumour cell line panel, 48 h
[1] = test system: A498
[2] = test system: ACHN
[3] = test system: CAKI-1
[4] = test system: HCC 2998
[5] = test system: HCT-116
[6] = test system: HCT-15
[7] = test system: HOP-62
[8] = test system: Hs-578T
[9] = test system: MCF7
[10] = test system: MDA-MB-231
[11] = test system: NCI-H460
[12] = test system: SF-295
[13] = test system: SF-539
[14] = test system: SK-MEL-5
[15] = test system: SN12C
[16] = test system: SNB-19
[17] = test system: SNB-75
[18] = test system: SR
[19] = test system: SW-620
[20] = test system: UO-31

Compound | GI50 [1] | GI50 [2] | GI50 [3] | GI50 [4] | GI50 [5] | GI50 [6] [µM] | GI50 [7] | GI50 [8] | GI50 [9] | GI50 [10] | GI50 [11] | GI50 [12] | GI50 [13] | GI50 [14] | GI50 [15] | GI50 [16] | GI50 [17] | GI50 [18] | GI50 [19] | GI50 [20]
COc1ccc(C2C3=C(COC3=O)Oc3cc4c(cc32)OCO4)c(OC)c1 (stereo not given) | 16.1 µM (inactive) | 19.9 µM (inactive) | 18.6 µM (inactive) | 20.8 µM (inactive) | 6.24 µM (inactive) | 5.73 | 30.3 µM (inactive) | 13.6 µM (inactive) | 6.89 µM (inactive) | 9.04 µM (inactive) | 17.4 µM (inactive) | 5.77 µM (inactive) | 12.6 µM (inactive) | 10.7 µM (inactive) | 6.75 µM (inactive) | 37.8 µM (inactive) | 10.9 µM (inactive) | 4.99 µM (inactive) | 5.81 µM (inactive) | 16.3 µM (inactive)
Cc1cc2c(c3oc(C(O)(CO)C4CO4)cc(=O)c13)C(=O)c1c(O)cccc1C2=O (stereo not given) | 0.00212 µM (active) | 0.000278 µM (active) | 0.000463 µM (active) | 0.00131 µM (active) | 0.000363 µM (active) | 0.000887 | 0.00147 µM (active) | 0.00436 µM (active) | 0.000435 µM (active) | 0.00213 µM (active) | 0.000372 µM (active) | 0.00139 µM (active) | 0.000662 µM (active) | 0.002 µM (active) | 0.000674 µM (active) | 0.00119 µM (active) | 0.00122 µM (active) | 0.000213 µM (active) | 0.000377 µM (active) | 0.000154 µM (active)

From ChEMBL document CHEMBL1201862, “PubChem BioAssay data set” (2004)
